Assays:
[1] = Vitamin B12 absorption (plasma PK) after dosing Sprague-Dawley rats; type: in vivo; conditions: male rats
Method: Tablets with four types of different ingredients were made as follows: (1) 8.8 mg of vitamin B12, 35 mg of SNAC were weighed, thoroughly mixed and made into a tablet for dosing on rat; (2) 8.8 mg of vitamin B12, 35 mg of SNAC and 5 mg of Capmul PG-8 were weighed, thoroughly mixed and made into a tablet; (3) 8.8 mg of vitamin B12, 35 mg of SNAC and 0.9 mg of Providone were weighed, thoroughly mixed and made into a tablet. Each of the four processes was repeated to produce more tablets.
Male Sprague-Dawley rats (325-350 g) were dosed with vitamin B12 intravenously (0.5 mg/kg) alone, or orally with the tablets made in Example 4 at a dose of 50 mg/kg vitamin B12 alone or in combination with SNAC at 200 mg/kg. Blood samples were collected at 0, 3, 10, 20, 30, 60, 120, 240 and 360 minutes post dosing. Plasma samples were analyzed for B12 by RIA. The model independent PK metrics obtained following B12-SNAC combination were compared to those obtained following B12 alone.

[2] = Serum cyanocobalamin pharmacokinetics after dosing human subjects; type: in vivo; conditions: healthy male subjects, fasted, single intravenous dose 1 mg cyanocobalamin, 4 subjects
Method: Sixteen healthy male subjects were randomized to receive one of the following treatments: • (1) Treatment B: a single oral dose of cyanocobalamin/SNAC (5 mg cyanocobalamin/100 mg SNAC) administered in the fasted state as a tablet. (6 subjects); • (2) Treatment C: a single oral dose of cyanocobalamin alone (5 mg cyanocobalamin, VitaLabs, commercial) administered in the fasted state as a tablet. (6 subjects). • (3) Treatment D: a single intravenous dose of cyanocobalamin (1 mg cyanocobalamin) administered in the fasted state. (4 subjects). Each subject received a 1 mL intravenous injection of a 1 mg/mL (1000 μg/mL) solution resulting in a total dose of 1 mg cyanocobalamin.
The subjects were fasted overnight prior to dosing and had no liquids (including water) consumption for at least one hour before and after dosing. The oral forms of cyanocobalamin/SNAC tablets were administered in a single dose as tablets with 50 mL of plain water. Twenty-five blood samples were drawn for cyanocobalamin analyses at the following time points: within 30 minutes pre-dose and at Minutes 2, 5, 10, 20, 30, 40, 50, and at Hours 1, 1.5, 2, 3, 4, 5, 6, 7, 8, 9, 10, 11, 12, 14, 16, 20 and 24 post-dose.
Pharmacokinetic metrics was obtained following a model independent pharmacokinetic analysis of individual cyanocobalamin concentrations. Descriptive statistics was used to summarize the results.

[3] = IV, 0.5 mg/kg vitamin B12, N = 5
[4] = PO tablet, 50 mg/kg vitamin B12 (alone or with 200 mg/kg SNAC), N = 5

Row | AUC Mean [1, 3] [µg·min/mL] | Tmax Mean [1, 3] [min] | Cmax Mean ([1]; IV, 0.5 mg/kg vitamin B12, plasma B12 by RIA, N = 5) [µg/mL] | AUC Mean [1, 4] [µg·min/mL] | Tmax Mean [1, 4] [min] | Cmax Mean ([1]; PO tablet, 50 mg/kg vitamin B12 (alone or with 200 mg/kg SNAC), plasma B12 by RIA, N = 5) [µg/mL] | Mean Bioavailability ([1]; PO tablet, 50 mg/kg vitamin B12 (alone or with 200 mg/kg SNAC), versus IV) [%] | Mean B12 peak concentration (Cmax) [2] [ng/mL] | mean AUClast (0-24) [2] [ng·h/mL] | Substance
1 | 65.84 | 4.4 | 2.15 | 28.72 | 52 | 0.14 | 0.42 |  |  | Vitamin B12
2 |  |  |  |  |  |  |  | 221.287 ± 80.248 | 215.391 ± 44.602 | cyanocobalamin

Source: patent US8557792B2, “Method of treating vitamin B12 deficiency” (priority 2007, dated 2013)
